Data as given in PMC5716981, “Inhibition of A2A Adenosine Receptor Signaling in Cancer Cells Proliferation by the Novel Antagonist TP455” (Frontiers in Pharmacology, 2017).
Structures can show the parent of a compound that is named as a salt. One block for each molecule: values may come before it.

Key:
A2AARs [1] = target: A2AARs (Rattus norvegicus, UniProt P30543); test: biochemical
Description: (§4) For membrane preparation the culture medium was removed. […] The cell suspension was homogenized with Polytron and the homogenate was spun for 10 min at 1000 g. The supernatant was then centrifuged for 30 min at 100,000g. The membrane pellet was resuspended in 50 mM Tris HCl buffer pH 7.4, 10 mM MgCl2. […] Then the suspension was frozen at -80°C.
(§5) At the end of the incubation, bound and free radioactivity were separated by filtering, in a Brandel cell harvester, the assay mixture through Whatman GF/B glass-fiber filters. The filter bound radioactivity was counted in a liquid Scintillation Counter Tri Carb Packard 2500 TR (Perkin-Elmer Life and Analytical Sciences, Boston, MA, United States).
(§6) LIGAND was also used to determine inhibitory binding constant (Ki) values from the competition binding experiments. All values in the figures and text are expressed as mean ± standard error (SE) of three independent experiments.

A549 cells = test: DELFIA cell proliferation (BrdU) in A549 cells; format: cell-based, human; settings: for effect on cell proliferation: 100 nM; for inhibition of CGS21680-induced cell proliferation by signalling inhibitor: 10 μM inhibitor 30 min pretreatment; for inhibition of CGS21680-induced cell proliferation by signalling inhibitor / antagonism of CGS21680-induced cell proliferation: 100 nM CGS21680, 24 h
Description: (§1) Tumoral cell lines A375 (human skin malignant melanoma), A549 (adenocarcinomic human alveolar basal epithelial cells) and rat cell line MRMT-1 (rat breast carcinoma cells) were purchased from ATCC and were grown adherently at 37°C in 5% CO2/95% air. A375 and A549 were maintained in DMEM high glucose medium containing 10% fetal calf serum, penicillin (100 U/mL) and streptomycin ([…]) and MRMT-1 were grown in RPMI 1640 medium containing 10% fetal calf serum, penicillin (100 U/mL), streptomycin ([…]), and L-glutamine (2 mM). Adenosine receptor agonists and antagonists and inhibitors of kinases, were made up in dimethyl sulfoxide solution (DMSO) and then diluted in cell culture medium (0.1 max 0.2% of DMSO). An equal amount of DMSO was used in control cells (CTR).
(§2) The DELFIA assay was performed to determine cell proliferation according to the manufacturer’s protocol from PerkinElmer (Milan, Italy). The assay is a time-resolved fluoroimmunoassay based on the incorporation of BrdU into newly synthesized DNA strands of proliferating cells cultured in microliter plates. Incorporated BrdU is detected using a europium labeled monoclonal antibody and the fluorescence measured is proportional to the DNA synthesis in the cell population of each well. A375, A549, and MRMT-1 cells were cultured over night at 1000 cells/well in a 96-well plate (at a final volume of 100 μl per well), agonists and antagonists were added and the cells were incubated for 30′ before addition of the BrdU-Labeling solution 10 μl/well. The cells were then cultured for 24, 48, or 72 h. At the end of the incubation period, cells were fixed (fix solution 100 μl/well), added with 100 μl/well of Anti-BrdU-Eu (0.5 μg/ml) and incubated for 120 min at room temperature. After four washes, 200 μl of DELFIA Inducer were added at room temperature for 15 min and the Eu-fluorescence was detected through an Ensight Perkin Elmer-multimode plate reader (Perkin Elmer, Milan, Italy). Two kinds of controls were performed: the blank where no cells were added to the well but only culture medium and the background where no BrdU was added to the wells.

MRMT-1 cells = test: DELFIA cell proliferation (BrdU) in MRMT-1 cells; format: cell-based, rat; settings: for inhibition of CGS21680-induced cell proliferation by signalling inhibitor: 10 μM inhibitor 30 min pretreatment; for inhibition of CGS21680-induced cell proliferation by signalling inhibitor / antagonism of CGS21680-induced cell proliferation: 100 nM CGS21680, 48 h; for effect on cell proliferation when tested alone: 48 h
Description: as §1, §2

A375 cells = test: DELFIA cell proliferation (BrdU) in A375 cells; format: cell-based, human; settings: for inhibition of CGS21680-induced cell proliferation by signalling inhibitor: 10 μM inhibitor 30 min pretreatment; for inhibition of CGS21680-induced cell proliferation by signalling inhibitor / antagonism of CGS21680-induced cell proliferation: 100 nM CGS21680, 48 h; for effect on cell proliferation when tested alone: 48 h
Description: as §1, §2

pERK1/2 = test: AlphaScreen SureFire pERK1/2 assay in MRMT-1, A375 and A549 cells; format: cell-based, human and rat; settings: for antagonism of CGS21680-induced ERK1/2 phosphorylation: 100 nM CGS21680 5 min; for inhibition of CGS21680-mediated ERK1/2 phosphorylation: 10 μM inhibitor, 100 nM CGS 21680, MRMT-1, A375 and A549 cells
Description: (§3) AlphaScreen SureFire phospho(p)ERK1/2(Thr202/Tyr204), pJNK1/3(pThr183/Tyr185), and p-AKT1/2/3 (pThr308) assay kits (Perkin Elmer, Milan, Italy) were utilized. Upon kinase phosphorylation and excitation at 680 nm, fluorescent signals at 615 nm are emitted. Cells were seeded in 100 μl culture medium into 96-well plates (30,000/well), and incubated at 37°C for 24 h. Cells were pretreated with various inhibitors and TP455 for 30 min. Then, receptors were maximally stimulated using 100 nM CGS 21680 and incubated for 5 min (ERK1/2, JNK1/2-MAPK) or 30 min (AKT) at 37°C. After agonist removal, lysis buffer was added, then donor and acceptor beads linked to specific anti-p-kinase- and anti-kinase-antibodies were dispensed, according to manufacturer instructions. Finally, fluorescent signals were detected through an Ensight Perkin Elmer-multimode plate reader (Perkin Elmer, Milan, Italy). Data were normalized to fold activation above basal p-kinase levels (=100). For inhibitor graphs, raw data were transformed into percentages relative to controls (basal level = 100%) in order to merge data from several experiments.

pJNK1/2 = test: AlphaScreen SureFire pJNK1/2 assay in MRMT-1, A375 and A549 cells; format: cell-based, human and rat; settings: for antagonism of CGS21680-induced JNK1/2 phosphorylation: 100 nM CGS21680 5 min; for inhibition of CGS21680-mediated JNK1/2 phosphorylation: 10 μM inhibitor, 100 nM CGS 21680, MRMT-1, A375 and A549 cells
Description: as §3

pAKT = test: AlphaScreen SureFire pAKT assay in MRMT-1, A375 and A549 cells; format: cell-based, human and rat; settings: for antagonism of CGS21680-induced AKT phosphorylation: 100 nM CGS21680 10 min; for inhibition of CGS21680-mediated AKT phosphorylation: 10 μM inhibitor, 100 nM CGS 21680, MRMT-1, A375 and A549 cells
Description: as §3, with “Then, receptors were maximally stimulated using 100 nM CGS 21680 and incubated for 5 min (ERK1/2, JNK1/2-MAPK) or 30 min (AKT) at 37°C.” left out

A2AARs [2] = target: T1, A2AARs (Homo sapiens, UniProt P29274); test: [3H]ZM241385 competition binding in A375 melanoma membranes
Description: as §4, §5, §6

A2AARs [3] = target: T1, A2AARs; test: [3H]ZM241385 competition binding in A549 lung carcinoma membranes
Description: as §4, §5, §6

[4] = 100 nM, 0-60 min, MRMT-1, A375 and A549 cells
[5] = 10 nM antagonist 30 min pretreatment, MRMT-1, A375 and A549 cells
[6] = 100 nM antagonist 30 min pretreatment
[7] = 100 nM antagonist 30 min pretreatment, MRMT-1, A375 and A549 cells

Chain of A2AARs (Rattus norvegicus, UniProt P30543) (P30543 whole entry): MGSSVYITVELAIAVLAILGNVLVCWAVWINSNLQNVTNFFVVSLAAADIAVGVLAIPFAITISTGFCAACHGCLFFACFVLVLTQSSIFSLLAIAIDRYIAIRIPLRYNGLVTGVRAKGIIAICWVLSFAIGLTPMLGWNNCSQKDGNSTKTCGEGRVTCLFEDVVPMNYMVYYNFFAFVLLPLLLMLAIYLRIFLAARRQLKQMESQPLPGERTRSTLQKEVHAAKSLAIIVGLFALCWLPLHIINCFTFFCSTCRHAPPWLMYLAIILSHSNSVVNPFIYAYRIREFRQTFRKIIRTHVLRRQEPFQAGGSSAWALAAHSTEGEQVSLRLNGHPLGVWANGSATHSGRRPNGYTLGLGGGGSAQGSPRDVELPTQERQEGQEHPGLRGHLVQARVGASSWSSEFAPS
T1 sequence (P29274 whole entry): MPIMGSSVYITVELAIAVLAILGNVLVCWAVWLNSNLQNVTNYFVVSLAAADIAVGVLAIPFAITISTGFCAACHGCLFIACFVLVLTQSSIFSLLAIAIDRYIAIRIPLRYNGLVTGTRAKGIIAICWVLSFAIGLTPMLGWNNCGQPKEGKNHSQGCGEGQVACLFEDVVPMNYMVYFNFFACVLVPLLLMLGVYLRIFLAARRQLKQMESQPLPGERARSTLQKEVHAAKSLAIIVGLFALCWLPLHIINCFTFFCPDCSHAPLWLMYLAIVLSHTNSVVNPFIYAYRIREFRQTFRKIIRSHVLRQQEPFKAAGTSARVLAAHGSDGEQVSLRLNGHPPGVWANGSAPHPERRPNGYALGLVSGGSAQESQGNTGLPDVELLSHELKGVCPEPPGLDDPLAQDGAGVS

Structure (SMILES): Nc1nc2ccc(Cl)cc2c2nc(-c3ccco3)nn12 [CGS15943]
- Ki (A2AARs [1]): 2150 pM

Structure (SMILES): CCNC(=O)[C@H]1O[C@@H](n2cnc3c(N)nc(NCCc4ccc(CCC(=O)O)cc4)nc32)[C@H](O)[C@@H]1O [CGS21680, 2-p-(2-Carboxyethyl)phenethylamino-5′-N-ethylcarboxamido-adenosine hydrochloride hydrate]
- effect on cell proliferation (A549 cells; 48 and 72 h): not more present
- effect on cell proliferation (A549 cells; 24 h): slightly increased cell proliferation
- effect on cell proliferation (MRMT-1 cells; 10 nM, 48 and 72 h): raised cell vitality
- effect on cell proliferation (MRMT-1 cells; 100 nM, 24, 48 and 72 h): significant stimulation
- effect on cell proliferation (A375 cells; 100 nM, only at 48 h): stimulatory effect of cell proliferation
- ERK1/2 phosphorylation time course (pERK1/2; [4]): reached a maximal effect after 5 min
- JNK1/2 phosphorylation time course (pJNK1/2; [4]): reached a maximal effect after 5 min
- AKT phosphorylation time course (pAKT; [4]): started to increase after 10 min

Structure (SMILES): Oc1ccc(-c2nc(-c3ccc(F)cc3)c(-c3ccncc3)[nH]2)cc1 [SB202190, 4-(4-Fluorophenyl)-2-(4-hydroxyphenyl)-5-(4-pyridyl)-1H-imidazole]
- inhibition of CGS21680-induced cell proliferation by signalling inhibitor (A549 cells): did not
- inhibition of CGS21680-induced cell proliferation by signalling inhibitor (MRMT-1 cells): did not
- inhibition of CGS21680-induced cell proliferation by signalling inhibitor (A375 cells): did not

Structure (SMILES): Nc1nc2c(cnn2CCc2ccccc2)c2nc(-c3ccco3)nn12 [SCH58261]
- Ki (A2AARs [1]): 3260 pM

Structure (SMILES): CCCCCCCCCCCCCCCCCCOC[C@H](COP(=O)(O)O[C@H]1[C@H](O)[C@@H](O)[C@H](O)C[C@H]1OC)OC [SH5, D-3-Deoxy-2-O-methyl-myo-inositol 1-[(R)-2-methoxy-3-(octadecyloxy)propyl hydrogen phosphate]]
- inhibition of CGS21680-induced cell proliferation by signalling inhibitor (A549 cells): strongly reduced
- inhibition of CGS21680-induced cell proliferation by signalling inhibitor (MRMT-1 cells): strongly reduced
- inhibition of CGS21680-induced cell proliferation by signalling inhibitor (A375 cells): strongly reduced

Structure (SMILES): Oc1c2ccccc2c2c3c(cccc13)N=N2 [SP600125, 1,9-Pyrazoloanthrone]
- inhibition of CGS21680-induced cell proliferation by signalling inhibitor (A549 cells): strongly reduced
- inhibition of CGS21680-induced cell proliferation by signalling inhibitor (MRMT-1 cells): strongly reduced
- inhibition of CGS21680-induced cell proliferation by signalling inhibitor (A375 cells): strongly reduced

Structure (SMILES): Nc1ncnc2c1ncn2C1CCCO1 (stereo not shown) [SQ22,536]
- inhibition of CGS21680-induced cell proliferation by signalling inhibitor (A549 cells): did not block the agonist effect
- inhibition of CGS21680-induced cell proliferation by signalling inhibitor (MRMT-1 cells): did not block the agonist effect
- inhibition of CGS21680-induced cell proliferation by signalling inhibitor (A375 cells): did not block the agonist effect

- Ki (A2AARs [1]): 6.1 pM
- Ki (A2AARs [2]): 5.8 pM
- Ki (A2AARs [3]): 5.3 pM
Structure (SMILES): COc1ccccc1CNc1nc(N)c2nc(-c3ccco3)sc2n1 [TP455, 2-(2-furanyl)-N^5-(2-methoxybenzyl)[1,3]thiazolo[5,4-d]pyrimidine-5,7-diammine]
- effect on cell proliferation when tested alone (A549 cells; 10 nM alone, 24 h): did not alter cell proliferation
- antagonism of CGS21680-induced cell proliferation (A549 cells; 10 nM antagonist): antagonized
- effect on cell proliferation when tested alone (MRMT-1 cells; 10 nM alone): did not alter cell proliferation
- antagonism of CGS21680-induced cell proliferation (MRMT-1 cells; 10 nM antagonist): antagonized
- effect on cell proliferation when tested alone (A375 cells; 10 nM alone): did not alter cell proliferation
- antagonism of CGS21680-induced cell proliferation (A375 cells; 10 nM antagonist): antagonized
- antagonism of CGS21680-induced ERK1/2 phosphorylation (pERK1/2; [5]): potently inhibited
- antagonism of CGS21680-induced JNK1/2 phosphorylation (pJNK1/2; [5]): potently inhibited
- antagonism of CGS21680-induced AKT phosphorylation (pAKT; [5]): potently inhibited

Structure (SMILES): N#CC(=C(/N)Sc1ccccc1N)/C(C#N)=C(/N)Sc1ccccc1N [U0126]
- inhibition of CGS21680-induced cell proliferation by signalling inhibitor (A549 cells): strongly reduced
- inhibition of CGS21680-induced cell proliferation by signalling inhibitor (MRMT-1 cells): strongly reduced
- inhibition of CGS21680-induced cell proliferation by signalling inhibitor (A375 cells): strongly reduced

Structure (SMILES): COc1ccc2c(c1)CC[C@@H]1[C@@H]2CC[C@]2(C)[C@@H](NCCCCCCN3C(=O)C=CC3=O)CC[C@@H]12 [U73122, 1-[6-[[(17β)-3-Methoxyestra-1,3,5(10)-trien-17-yl]amino]hexyl]-1H-pyrrole-2,5-dione]
- inhibition of CGS21680-induced cell proliferation by signalling inhibitor (A549 cells): able to antagonize the stimulatory effect
- inhibition of CGS21680-induced cell proliferation by signalling inhibitor (MRMT-1 cells): able to antagonize the stimulatory effect
- inhibition of CGS21680-induced cell proliferation by signalling inhibitor (A375 cells): able to antagonize the stimulatory effect
- inhibition of CGS21680-mediated ERK1/2 phosphorylation (pERK1/2): strongly reduced
- inhibition of CGS21680-mediated JNK1/2 phosphorylation (pJNK1/2): strongly reduced
- inhibition of CGS21680-mediated AKT phosphorylation (pAKT): strongly reduced

Structure (SMILES): Nc1nc(NCCc2ccc(O)cc2)nc2nc(-c3ccco3)nn12 [ZM241385, 4-(2-[7-Amino-2-(2-furyl) [1,2,4]triazolo[2,3-a][1,3,5]triazin-5-ylamino]ethyl)phenol]
- effect on cell proliferation when tested alone (A549 cells; 100 nM alone, 24 h): did not alter cell proliferation
- antagonism of CGS21680-induced cell proliferation (A549 cells; [6]): completely block the agonist effect
- effect on cell proliferation when tested alone (MRMT-1 cells; 100 nM alone): did not alter cell proliferation
- antagonism of CGS21680-induced cell proliferation (MRMT-1 cells; [6]): completely block the agonist effect
- effect on cell proliferation when tested alone (A375 cells; 100 nM alone): did not alter cell proliferation
- antagonism of CGS21680-induced cell proliferation (A375 cells; [6]): completely block the agonist effect
- antagonism of CGS21680-induced ERK1/2 phosphorylation (pERK1/2; [7]): completely reverted
- antagonism of CGS21680-induced JNK1/2 phosphorylation (pJNK1/2; [7]): completely reverted
- antagonism of CGS21680-induced AKT phosphorylation (pAKT; [7]): completely reverted

Structure (SMILES): CC(=O)c1c(O)c(C)c(O)c(Cc2c(O)c3c(c(C(=O)C=Cc4ccccc4)c2O)OC(C)(C)C=C3)c1O [rottlerin, 1-[6-[(3-Acetyl-2,4,6-trihydroxy-5-methylphenyl)methyl]-5,7-dihydroxy-2,2-dimethyl-2H-1-benzopyran-8-yl]-3-phenyl-2-propen-1-one]
- inhibition of CGS21680-induced cell proliferation by signalling inhibitor (A549 cells): able to antagonize the stimulatory effect
- inhibition of CGS21680-induced cell proliferation by signalling inhibitor (MRMT-1 cells): able to antagonize the stimulatory effect
- inhibition of CGS21680-induced cell proliferation by signalling inhibitor (A375 cells): able to antagonize the stimulatory effect
- inhibition of CGS21680-mediated ERK1/2 phosphorylation (pERK1/2): strongly reduced
- inhibition of CGS21680-mediated JNK1/2 phosphorylation (pJNK1/2): strongly reduced
- inhibition of CGS21680-mediated AKT phosphorylation (pAKT): strongly reduced
